Measurements: a melting point compilation (Tetko et al.)

With `Cc1nc2ncnn2c(C)c1CCC(=O)O` the melting point was 224 to 226 °C. `Nc1nnc(-c2ccc(F)cc2F)o1` showed a melting point of 232 to 234 °C. Work on `Nc1nc(-c2ccccc2)c(-c2ncc[nH]2)s1` yielded a melting point of 256 to 258 °C. Work on `Cc1cccc(C(=O)CC#N)c1C` yielded a melting point of 56 to 58 °C. For `O=C(O)C=Cc1ccc(OC(F)F)cc1`, the melting point was 182 to 184 °C. `O=C(O)c1cc(S(=O)(=O)N2CCCCC2)ccc1Cl` showed a melting point of 214 to 216 °C. In the case of `O=C(O)c1cccc2c1C(=O)c1ccccc1C2=O`, the melting point is reported as 293 to 295 °C. In the case of `CC(Cl)C(=O)NCC(=O)Nc1ccc(F)c(F)c1F` (configuration not stated), the melting point is reported as 128 to 130 °C. `Cc1ccccc1CNc1ccc2[nH]c(=O)[nH]c2c1` showed a melting point of 204 to 206 °C. For `O=C(O)C1CCCN1C(=O)c1cccs1` (configuration not stated), the melting point was 145 to 147 °C. Molecule `COc1ccc(NC(=O)CCCl)c([N+](=O)[O-])c1` has a melting point of 97 to 99 °C. Work on `Cc1ccc(S(=O)(=O)OI(O)c2ccccc2)cc1` yielded a melting point of 134 to 136 °C. `Cc1nc(N)sc1Cc1cccc(Cl)c1` gave a melting point of 74 to 76 °C. Molecule `NC(=O)c1ccc(S(N)(=O)=O)cc1` has a melting point of 243 to 245 °C. For `NS(=O)(=O)c1cccc2c1OCCO2`, the melting point was 173 to 175 °C. `C/C(=N/O)c1ccc2c(c1)CCO2` showed a melting point of 122 to 124 °C. In the case of `Cn1cc(Cl)cc1C(=O)NN`, the melting point is reported as 168 to 170 °C. Work on `CCOC(=O)Nc1c(F)cc(F)cc1C#C[Si](C)(C)C` yielded a melting point of 74 to 76 °C. In the case of `Cn1c(S)nnc1C1CC1`, the melting point is reported as 180 to 182 °C. For `CN(C)C(=O)Cn1ccc(N)n1`, the melting point was 58 to 60 °C. In the case of `O=C(O)c1ccc(COc2ccc(Cl)cc2)cc1`, the melting point is reported as 201 to 203 °C. Molecule `Nc1nc(-c2ccccc2OC(F)F)cs1` has a melting point of 73 to 75 °C. `Nc1nnc(-c2cccnc2)[nH]1` showed a melting point of 207 to 209 °C. With `O=C(NCCCN1CCCC1=O)OCC(F)(F)F` the melting point was 35 to 37 °C. Molecule `Cc1ccc(N)c(OCc2ccccc2)c1` has a melting point of 68 to 70 °C. For `Cc1[nH]c(=O)sc1C`, the melting point was 146 to 148 °C. Molecule `O=C(O)COc1cccc2cccnc12` has a melting point of 125 to 127 °C. Work on `Nc1cc(Cl)c(I)cn1` yielded a melting point of 99 to 101 °C. Molecule `CC(C)Cn1cc(C(=O)O)c2ccccc21` has a melting point of 151 to 153 °C. With `O=C1c2ccccc2C(=O)N1CC1CN(Cc2ccccc2)CCO1` (configuration not stated) the melting point was 136 to 138 °C. In the case of `CC(C)CC(N)C(=O)Nc1nccs1` (configuration not stated), the melting point is reported as 99 to 101 °C. Molecule `Cc1ccc(Cl)cc1NC(=O)CC#N` has a melting point of 190 to 192 °C. In the case of `O=c1[nH]c2c(Br)cccc2c(=O)o1`, the melting point is reported as 169 to 171 °C. Molecule `CC(=O)c1ccn(S(=O)(=O)c2ccc(C)cc2)c1` has a melting point of 83 to 85 °C. With `CCn1c(N)nc2cc(Cl)ccc21` the melting point was 169 to 171 °C. With `Nc1ccc(S(=O)(=O)Nc2ccc(Cl)c(C(F)(F)F)c2)cc1` the melting point was 144 to 146 °C. Work on `Cc1ccccc1-c1cc(N)n(Cc2ccccc2)n1` yielded a melting point of 139 to 141 °C. For `COc1ccc(CC(N)=O)cc1F`, the melting point was 173 to 175 °C. Work on `CC1(c2ccc(S(C)(=O)=O)cc2)CO1` (configuration not stated) yielded a melting point of 96 to 98 °C. Work on `CC1(C)C(=O)NS1(=O)=O` yielded a melting point of 137 to 139 °C. `CC1CCc2c(sc3nc(CC#N)[nH]c(=O)c23)C1` (configuration not stated) gave a melting point of 266 to 268 °C. Molecule `CC(=O)c1ccc(OC2CCCCC2)c(F)c1` has a melting point of 48 to 50 °C. In the case of `Cc1nccn1-c1ccc(N)cc1F`, the melting point is reported as 84 to 86 °C. `COc1ccccc1C(=O)c1ccccn1` showed a melting point of 49 to 51 °C. For `CSc1ccc(C(=O)O)cn1`, the melting point was 182 to 184 °C. Work on `O=C(O)c1ccccc1C(=O)c1ccc(Cl)c(Cl)c1` yielded a melting point of 187 to 189 °C. In the case of `N=C(NN)c1cc(Cl)ccn1`, the melting point is reported as 248 to 250 °C. In the case of `CC(C)C(N)c1nnc2ccccn12` (configuration not stated), the melting point is reported as 116 to 118 °C. With `OCCNc1ccncc1` the melting point was 110 to 112 °C. Molecule `Cc1nn2c(C=O)c(C(C)C)nc2s1` has a melting point of 40 to 42 °C. `Cc1cc(Br)ccc1SCC(=O)O` gave a melting point of 125 to 127 °C. `O=C(O)C(=O)c1ccc2c(c1)CCCC2` gave a melting point of 70 to 72 °C. With `NC(=O)c1cccc2cccnc12` the melting point was 168 to 170 °C. For `CN1CCC(n2ncc3cc(Br)cnc32)CC1`, the melting point was 120 to 122 °C. Molecule `CN1CCc2nc(N)sc2C1` has a melting point of 168 to 170 °C. `Nc1cc(S(N)(=O)=O)ccc1S` showed a melting point of 220 to 222 °C. Molecule `CC(C)(C)OC(=O)N1CCCC(n2cc(C(=O)O)cn2)C1` (configuration not stated) has a melting point of 166 to 168 °C. `Cc1n[nH]c(=O)c2noc(C)c12` gave a melting point of 213 to 215 °C. Molecule `O=C(O)Cc1cccc2sccc12` has a melting point of 127 to 129 °C. Work on `CN1CCN(C(=O)c2ccc(C#N)cn2)CC1` yielded a melting point of 83 to 85 °C. With `CC(C)(C)C(N)=NO` the melting point was 93 to 95 °C. In the case of `O=C(O)c1cc(Cl)ccc1Oc1ccc(F)cc1`, the melting point is reported as 102 to 104 °C. `O=C(O)C1CCN(c2ccc(S(=O)(=O)N3CCCCC3)cc2[N+](=O)[O-])CC1` gave a melting point of 241 to 243 °C. For `O=C(O)c1ccc(-c2nnn[nH]2)cc1`, the melting point was 282 to 284 °C. Work on `Cc1ncc(Br)c(N)n1` yielded a melting point of 109 to 111 °C. In the case of `Cc1cc(F)cc(C(=O)O)c1N`, the melting point is reported as 191 to 193 °C. For `BrCCCOc1ccc2ccccc2c1`, the melting point was 56 to 58 °C. `O=C(O)CSCC(=O)Nc1cccc(Br)c1` gave a melting point of 63 to 65 °C. For `Oc1ccc(Oc2nccs2)cc1`, the melting point was 126 to 128 °C. With `NNc1ncnc2c1oc1ccccc12` the melting point was 232 to 234 °C. In the case of `CC(=O)NCc1ccc(N)cc1`, the melting point is reported as 92 to 94 °C. `O=C(O)c1ccc(Cl)c(S(=O)(=O)N(Cc2ccccc2)c2cccc(C(F)(F)F)c2)c1` gave a melting point of 201 to 203 °C. With `CC(N)C(O)c1ccc(F)cc1` (configuration not stated) the melting point was 87 to 89 °C. `CC(Cl)C(=O)NC(C)c1ccc2c(c1)CCCC2` (configuration not stated) gave a melting point of 106 to 108 °C. With `CCN1CC(C(=O)O)CC1=O` (configuration not stated) the melting point was 92 to 94 °C. In the case of `Cn1[nH]c(=O)nc1S`, the melting point is reported as 216 to 220 °C. For `O=C(O)CNC(=O)CNC(=O)c1ccco1`, the melting point was 208 to 210 °C. In the case of `Nc1ccc(N2CCCC2=O)cn1`, the melting point is reported as 165 to 167 °C. In the case of `Cc1cc(NC(=O)CCl)no1`, the melting point is reported as 182 to 190 °C. Molecule `Cc1ccc(NS(=O)(=O)c2ccc(C)c(N)c2)c(C)c1` has a melting point of 111 to 113 °C. `CCc1c(O)nc(S)n(-c2cccc(OC)c2)c1=O` gave a melting point of 141 to 143 °C. In the case of `Cc1ccnc(NN)c1`, the melting point is reported as 74 to 76 °C. Work on `CCc1ccc(-c2nn(-c3ccccc3C)cc2C(=O)O)cc1` yielded a melting point of 177 to 179 °C. `COC(=O)c1cc2cccc(Br)c2o1` gave a melting point of 76 to 78 °C. With `CN1CCN(c2ccc(N)cn2)CC1` the melting point was 109 to 111 °C. In the case of `Cc1nc(-c2cccc(O)c2)no1`, the melting point is reported as 126 to 128 °C. `O=C(O)C1=CCCCO1` showed a melting point of 66 to 68 °C. With `NS(=O)(=O)c1ccc(CC(=O)O)s1` the melting point was 128 to 130 °C. `Cc1ccc(NS(=O)(=O)c2cccc(C(=O)O)c2)c(C)c1` showed a melting point of 194 to 196 °C. For `Cc1cc(C(N)C(=O)O)cc(C)c1O` (configuration not stated), the melting point was 203 to 205 °C. Work on `O=[N+]([O-])c1ccc(COc2ccccc2)cc1` yielded a melting point of 87 to 89 °C. `Cc1ccccc1-n1c(S)nnc1-c1cccnc1` showed a melting point of 94 to 96 °C. `Cc1nc(-c2ccco2)ccc1C(=O)O` gave a melting point of 174 to 176 °C. For `Cn1cc(C(=O)CBr)c2ccccc21`, the melting point was 132 to 134 °C. `Nc1ccccc1S(=O)(=O)C(F)(F)F` showed a melting point of 47 to 49 °C. Work on `CCOC(=O)c1c(N)sc(C)c1CC(C)CC` (configuration not stated) yielded a melting point of 77 to 79 °C. For `CCN(CC)C(=O)CCC(=O)O`, the melting point was 74 to 76 °C. In the case of `N#CCCSc1ccc(C(F)(F)F)cc1N`, the melting point is reported as 58 to 60 °C. Molecule `O=S(=O)(Cl)c1ccc(CCCl)cc1` has a melting point of 53 to 55 °C. Molecule `O=C(c1cc(S(=O)(=O)Cl)c[nH]1)N1CCCC1` has a melting point of 191 to 193 °C. With `CCN(CC)S(=O)(=O)c1ccc2c(c1)CCCN2` the melting point was 131 to 133 °C. Molecule `O=C(O)c1ccc(Cl)cc1I` has a melting point of 157 to 159 °C.
